“And” between values parts separate entries of the source, which are not always exact repeats. Equal entries are not always repeated.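 Briefly, cells in 96-well plates were exposed to five compound concentrations for 48 h, and endpoints were estimated by linear interpolation. GI50 = concentration required for 50% inhibition of growth. Definition used: TGI = concentration required for complete inhibition of growth.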
test system: HS 578T breast; experiment: NCI-60 cell line screen, 48 h

| Compound | TGI [µM] |
| --- | --- |
| N#Cc1c(-c2ccccc2)[nH]c2ccccc2c1=O | 71.5 |
| CC12CCC(C(=O)OC1=O)C2(C)C (stereo unspecified) | > 100 |
| CC1(C)c2ccccc2C(=O)C12CCC(=O)CC2 | > 100 |
| CCOC(=O)C1=C(Nc2cccc(OC)c2)OCC1=O | > 100 |
| CO[C@H]1[C@@H](O)[C@@H](C)O[C@@H](O[C@H]2CC[C@@]3(C)[C@H](CC[C@@H]4[C@@H]3CC[C@]3(C)[C@@H](C5=CC(=O)OC5)[C@@H](OC(C)=O)C[C@]43O)C2)[C@@H]1O | 0.124 |

test system: MDA-N; experiment: NCI-60 cell line screen, 48 h

| Compound | TGI [µM] |
| --- | --- |
| CN(C)C(=O)NCCN1CCCCCc2ccccc21 | > 100 |
| CC1(C#N)CC(C)(C)C(/C=C2/CC(C)(C)C(/C=C3/OC(=N)CC3(C)C)=N2)=N1 (stereo unspecified) | 92.1 |
| CC(=O)Oc1ccccc1-c1cc2ccccc2oc1=O | > 100 |
| C[C@]12CCC(=O)C=C1CC[C@@H]1C2CC[C@]2(C)c3nn(-c4ccc(F)cc4)nc3CC12 (stereo partly specified) | > 100 |
| CCOC(=O)c1csc(NC(=O)C(C)N2CCCCC2)n1 (stereo unspecified) | > 100 |
| O=C1c2cc3c(cc2CC12Cc1cc4c(cc1C2=O)CCC4)CCCC3 (stereo unspecified) | > 100 |
| N#Cc1sc2nc(/C=C3/C=CC=CC3=O)c(O)n2c1N | > 100 |
| Cc1cccc2c1Oc1cc(Cl)ccc1C2NC(=O)CCN1CCOCC1 (stereo unspecified) | > 100 |
| O=C(O)c1ccc(NNc2cc(=O)[nH]c(=O)[nH]2)cc1 | > 100 |
| CCN(CC)/C(Cl)=C(Cl)\C(=C1\Nc2ccc(OC)cc21)[N+](=O)[O-] | > 100 |
| N#Cc1c(-c2ccccc2)[nH]c2ccccc2c1=O | > 100 |
| CC12CCC(C(=O)OC1=O)C2(C)C (stereo unspecified) | > 100 |
| CC1(C)c2ccccc2C(=O)C12CCC(=O)CC2 | > 100 |

test system: A549 NSCLC; experiment: NCI-60 cell line screen, 48 h

| Compound | TGI |
| --- | --- |
| CN(C)C(=O)NCCN1CCCCCc2ccccc21 | > 100 µM |
| Cc1ccc2c(c1CCCC(C)(C)O)C(=O)C(=O)C(C(C)C)=C2O | > 100 µM |
| CCOC(=O)c1nc2c(Cl)c3ncccc3cc2[nH]c1=O | > 100 µM |
| CC1(C#N)CC(C)(C)C(/C=C2/CC(C)(C)C(/C=C3/OC(=N)CC3(C)C)=N2)=N1 (stereo unspecified) | > 100 µM |
| CC(=O)Oc1ccccc1-c1cc2ccccc2oc1=O | > 100 µM |
| C=C1C(=O)O[C@H]2[C@H]1[C@@H](OC(=O)C=C(C)C)CC1=C[C@@H](C[C@@]3(C)O[C@@H]23)OC1=O | 63 µM and 39.7 µM |
| C[C@]12CCC(=O)C=C1CC[C@@H]1C2CC[C@]2(C)c3nn(-c4ccc(F)cc4)nc3CC12 (stereo partly specified) | > 100 µM |
| Cc1ccc2nc(-c3ccc(N)c(I)c3)sc2c1 | 58.7 µM |
| O=c1[nH]cc(COCC(F)(F)C(F)(F)C(F)(F)C(F)F)c(=O)[nH]1 | > 100 µM |
| CCC1c2[nH]c3ccccc3c2C[C@H]2C(=O)NC(COC(C)(C)C)C(=O)N12 (stereo partly specified) | > 100 µM |
| O=C1NC(=O)C(CCO)(c2ccccc2)C(=O)N1 | > 100 µM |
| Cc1cn(C2CC(ON3C(=O)c4ccccc4C3=O)C(CO)O2)c(=O)[nH]c1=O (stereo unspecified) | > 10 µM |
| Cc1ccc(C2CC(c3ccco3)=NN2c2ccccc2)o1 (stereo unspecified) | > 100 µM |
| COC(=O)C(=C/c1ccc(OC)cc1)/C(C(=O)O)=C(/C)c1ccccc1 | > 100 µM |
| COC(=O)c1ccc(/C=C2\N=C(C)OC2=O)cc1 | > 100 µM |
| Nc1ccc(C(=O)NN2C(=O)C(Cl)C2c2ccccc2Cl)cc1 (stereo unspecified) | 27.8 µM |
| CCOC(=O)c1csc(NC(=O)C(C)N2CCCCC2)n1 (stereo unspecified) | > 100 µM |
| O=C1c2cc3c(cc2CC12Cc1cc4c(cc1C2=O)CCC4)CCCC3 (stereo unspecified) | > 100 µM |

| Compound | TGI |
| --- | --- |
| N#Cc1sc2nc(/C=C3/C=CC=CC3=O)c(O)n2c1N | > 100 µM |
| CCN1CCN(c2ccc(Nc3ccnc4ccc5nn(C)nc5c34)cc2)CC1 | 27.3 µM |
| Cc1cccc2c1Oc1cc(Cl)ccc1C2NC(=O)CCN1CCOCC1 (stereo unspecified) | > 100 µM |
| O=C(O)c1ccc(NNc2cc(=O)[nH]c(=O)[nH]2)cc1 | > 100 µM |
| COC(=O)C1OC(Oc2cc(O)c3c(=O)cc(-c4ccc(O)cc4)oc3c2)C(O)C(O)C1O (stereo unspecified) | > 100 µM |
| CCN(CC)/C(Cl)=C(Cl)\C(=C1\Nc2ccc(OC)cc21)[N+](=O)[O-] | > 100 µM |
| N#Cc1c(-c2ccccc2)[nH]c2ccccc2c1=O | > 100 µM |
| C=CCn1c(=O)n(CC=C)c(=O)n(CC=C)c1=O | > 100 µM |
| CC1(C)c2ccccc2C(=O)C12CCC(=O)CC2 | > 100 µM |
| O=C1C(Cl)C(c2ccccc2)N1n1cnc2ccccc2c1=O (stereo unspecified) | > 100 µM |
| CN(C)C(=O)OCOC(=O)N(C)C | > 100 µM |
| CC(=O)OCC1OC(Nc2ncc(-c3ccc(C)cc3)s2)C(OC(C)=O)C(OC(C)=O)C1OC(C)=O (stereo unspecified) | > 100 µM |
| CCCCN1C=CN2c3nc4cc(C)c(C)cc4n3C(C(=O)OC)=C(C(=O)OC)C12 (stereo unspecified) | > 100 µM |
| CCCCCC(C[N+]1(C)CCOCC1)C(=O)/C=C/c1ccccc1 (stereo unspecified) | 62 µM |
| COc1ccc2c(c1)CC[C@@H]1[C@@H]2CC[C@]2(C)C(=O)/C(=C/c3ccc(OC)c(OC)c3)C[C@@H]12 | > 100 µM |
| C/C(=C1/CCCC2(N=NCC2c2ccccc2)C1=O)c1ccccc1 (stereo unspecified) | 92.6 µM |
| CO[C@H]1[C@@H](O)[C@@H](C)O[C@@H](O[C@H]2CC[C@@]3(C)[C@H](CC[C@@H]4[C@@H]3CC[C@]3(C)[C@@H](C5=CC(=O)OC5)[C@@H](OC(C)=O)C[C@]43O)C2)[C@@H]1O | 0.0241 µM |

test system: NCI-H522 lung; experiment: NCI-60 cell line screen, 48 h

| Compound | TGI [µM] |
| --- | --- |
| CN(C)C(=O)NCCN1CCCCCc2ccccc21 | > 100 |
| Cc1ccc2c(c1CCCC(C)(C)O)C(=O)C(=O)C(C(C)C)=C2O | > 100 |
| CCOC(=O)c1nc2c(Cl)c3ncccc3cc2[nH]c1=O | > 100 |
| CC1(C#N)CC(C)(C)C(/C=C2/CC(C)(C)C(/C=C3/OC(=N)CC3(C)C)=N2)=N1 (stereo unspecified) | 34 |
| CC(=O)Oc1ccccc1-c1cc2ccccc2oc1=O | > 100 |
| C=C1C(=O)O[C@H]2[C@H]1[C@@H](OC(=O)C=C(C)C)CC1=C[C@@H](C[C@@]3(C)O[C@@H]23)OC1=O | 3.08 |
| C[C@]12CCC(=O)C=C1CC[C@@H]1C2CC[C@]2(C)c3nn(-c4ccc(F)cc4)nc3CC12 (stereo partly specified) | > 100 |
| Cc1ccc2nc(-c3ccc(N)c(I)c3)sc2c1 | 39.2 |
| O=c1[nH]cc(COCC(F)(F)C(F)(F)C(F)(F)C(F)F)c(=O)[nH]1 | > 100 |
| CCC1c2[nH]c3ccccc3c2C[C@H]2C(=O)NC(COC(C)(C)C)C(=O)N12 (stereo partly specified) | > 100 |
| O=C1NC(=O)C(CCO)(c2ccccc2)C(=O)N1 | > 100 |
| Cc1cn(C2CC(ON3C(=O)c4ccccc4C3=O)C(CO)O2)c(=O)[nH]c1=O (stereo unspecified) | > 10 |
| Cc1ccc(C2CC(c3ccco3)=NN2c2ccccc2)o1 (stereo unspecified) | > 100 |
| COC(=O)C(=C/c1ccc(OC)cc1)/C(C(=O)O)=C(/C)c1ccccc1 | > 100 |
| COC(=O)c1ccc(/C=C2\N=C(C)OC2=O)cc1 | > 100 |
| Nc1ccc(C(=O)NN2C(=O)C(Cl)C2c2ccccc2Cl)cc1 (stereo unspecified) | 3.13 |

| Compound | TGI [µM] |
| --- | --- |
| O=C1c2cc3c(cc2CC12Cc1cc4c(cc1C2=O)CCC4)CCCC3 (stereo unspecified) | > 100 |
| N#Cc1sc2nc(/C=C3/C=CC=CC3=O)c(O)n2c1N | > 100 |
| CCN1CCN(c2ccc(Nc3ccnc4ccc5nn(C)nc5c34)cc2)CC1 | 23.6 |
| Cc1cccc2c1Oc1cc(Cl)ccc1C2NC(=O)CCN1CCOCC1 (stereo unspecified) | > 100 |
| COC(=O)C1OC(Oc2cc(O)c3c(=O)cc(-c4ccc(O)cc4)oc3c2)C(O)C(O)C1O (stereo unspecified) | > 100 |
| CCN(CC)/C(Cl)=C(Cl)\C(=C1\Nc2ccc(OC)cc21)[N+](=O)[O-] | 67.3 |
| C=CCn1c(=O)n(CC=C)c(=O)n(CC=C)c1=O | > 100 |
| CC12CCC(C(=O)OC1=O)C2(C)C (stereo unspecified) | > 100 |
| CC1(C)c2ccccc2C(=O)C12CCC(=O)CC2 | > 100 |
| O=C1C(Cl)C(c2ccccc2)N1n1cnc2ccccc2c1=O (stereo unspecified) | > 100 |
| CN(C)C(=O)OCOC(=O)N(C)C | > 100 |
| CC(=O)OCC1OC(Nc2ncc(-c3ccc(C)cc3)s2)C(OC(C)=O)C(OC(C)=O)C1OC(C)=O (stereo unspecified) | > 100 |
| CCCCN1C=CN2c3nc4cc(C)c(C)cc4n3C(C(=O)OC)=C(C(=O)OC)C12 (stereo unspecified) | > 100 |
| CCCCCC(C[N+]1(C)CCOCC1)C(=O)/C=C/c1ccccc1 (stereo unspecified) | 9.39 |
| C/C(=C1/CCCC2(N=NCC2c2ccccc2)C1=O)c1ccccc1 (stereo unspecified) | 59.6 |
| CO[C@H]1[C@@H](O)[C@@H](C)O[C@@H](O[C@H]2CC[C@@]3(C)[C@H](CC[C@@H]4[C@@H]3CC[C@]3(C)[C@@H](C5=CC(=O)OC5)[C@@H](OC(C)=O)C[C@]43O)C2)[C@@H]1O | 0.0368 |

test system: UACC-62 melanoma; experiment: NCI-60 cell line screen, 48 h

| Compound | TGI | GI50 [µM] |
| --- | --- | --- |
| CN(C)C(=O)NCCN1CCCCCc2ccccc21 | > 100 µM |  |
| CCOC(=O)c1nc2c(Cl)c3ncccc3cc2[nH]c1=O | 50.4 µM |  |
| CC1(C#N)CC(C)(C)C(/C=C2/CC(C)(C)C(/C=C3/OC(=N)CC3(C)C)=N2)=N1 (stereo unspecified) | 66 µM |  |
| C=C1C(=O)O[C@H]2[C@H]1[C@@H](OC(=O)C=C(C)C)CC1=C[C@@H](C[C@@]3(C)O[C@@H]23)OC1=O | 12.8 µM and 31.6 µM | 11.3 |
| C[C@]12CCC(=O)C=C1CC[C@@H]1C2CC[C@]2(C)c3nn(-c4ccc(F)cc4)nc3CC12 (stereo partly specified) | > 100 µM |  |
| Cc1ccc2nc(-c3ccc(N)c(I)c3)sc2c1 | > 100 µM |  |
| O=c1[nH]cc(COCC(F)(F)C(F)(F)C(F)(F)C(F)F)c(=O)[nH]1 | > 100 µM |  |
| CCC1c2[nH]c3ccccc3c2C[C@H]2C(=O)NC(COC(C)(C)C)C(=O)N12 (stereo partly specified) | > 100 µM |  |
| O=C1NC(=O)C(CCO)(c2ccccc2)C(=O)N1 | > 100 µM |  |
| Cc1cn(C2CC(ON3C(=O)c4ccccc4C3=O)C(CO)O2)c(=O)[nH]c1=O (stereo unspecified) | > 10 µM |  |
| Cc1ccc(C2CC(c3ccco3)=NN2c2ccccc2)o1 (stereo unspecified) | > 100 µM |  |
| COC(=O)C(=C/c1ccc(OC)cc1)/C(C(=O)O)=C(/C)c1ccccc1 | > 100 µM |  |
| COC(=O)c1ccc(/C=C2\N=C(C)OC2=O)cc1 | > 100 µM |  |
| Nc1ccc(C(=O)NN2C(=O)C(Cl)C2c2ccccc2Cl)cc1 (stereo unspecified) | 20.8 µM |  |
| CCOC(=O)c1csc(NC(=O)C(C)N2CCCCC2)n1 (stereo unspecified) | > 100 µM |  |
| CCN1CCN(c2ccc(Nc3ccnc4ccc5nn(C)nc5c34)cc2)CC1 | 30.8 µM |  |
| Cc1cccc2c1Oc1cc(Cl)ccc1C2NC(=O)CCN1CCOCC1 (stereo unspecified) | > 100 µM |  |
| O=C(O)c1ccc(NNc2cc(=O)[nH]c(=O)[nH]2)cc1 | > 100 µM |  |
| COC(=O)C1OC(Oc2cc(O)c3c(=O)cc(-c4ccc(O)cc4)oc3c2)C(O)C(O)C1O (stereo unspecified) | > 100 µM |  |
| CCN(CC)/C(Cl)=C(Cl)\C(=C1\Nc2ccc(OC)cc21)[N+](=O)[O-] | > 100 µM |  |

— PubChem BioAssay (NCI)
